Where two headings read alike, the source gives them in different places.
Assays:
[1] = 26-week rat toxicity and toxicokinetic study; assay type: in vivo; conditions: for AUC(0-t): Crl:CD(SD)IGS BR, rat, plasma, po, 8 mg/kg/day, EB-1010 8 mg/kg/day, read-out: AUC0-24 of metabolite
Protocol: A portion of the animals from each group was maintained for an additional 4-week post-treatment recovery period.
For toxicology assessment, groups comprised thirty animals of each gender. Assessments included clinical observations, body weight, and food consumption measures noted periodically during the study. […] Ophthalmic examinations were performed during Weeks 1 and 13. […] In addition, the liver, vagina, and ovaries were identified as potential target tissues and were examined microscopically for all animals from all groups at the primary and recovery necropsies. […] 10 animals of each gender from each group were held to week 30 for a 4-week post-treatment recovery period.
For the toxicokinetic studies, there were ten animals of each gender in each group.

[2] = 12-month dog toxicity and toxicokinetic study; assay type: in vivo; conditions: dog, in vivo
Protocol: Blood samples were collected on Days 0, 91, 181, 268 and 358 from up to 4 animals/gender/group. Plasma samples collected on Days 91, 181, 268, as well as all plasma samples collected from the control group were not evaluated.
For toxicology assessment four dogs of each gender were included in each group. Assessments included clinical observations, body weight, and food consumption measures which were recorded periodically during the study. Ophthalmic examinations were performed during Weeks 1, 12, 25, 38, 51, and 55 (recovery period). Electrocardiograms were recorded during Weeks 2, 12, 25, 38, and 51. Clinical pathology evaluations (hematology, serum chemistry, and urinalysis) were performed during Weeks 1, 12, 25, 38, 52, and 56 (recovery period). At termination, complete necropsies were performed on all dogs and selected organs were weighed. Selected tissues from the control and 20 (15) mg/kg/day group animals and animals euthanized in extremis were examined microscopically. Sections of livers from dogs in the control and 20 (15) mg/kg/day groups were collected at both the primary and 4-week post-treatment recovery necropsies for assessment of drug metabolism enzyme (microsomal cytochrome P450) activity.

[3] = NADPH dependent metabolism, human liver microsomes; assay type: in vitro ADME
Protocol: Bicifadine (10 μM) was used as the positive control and the formation of the lactam metabolites of bicifadine (M-12) was monitored.

[4] = Crl:CD-1(ICR) BR, mouse, in vivo

O=C1NCC2(c3ccc(Cl)c(Cl)c3)CC12 (stereo not drawn) [EB-10101, 5-(3,4-dichloro-phenyl)-3-aza-bicyclo[3.1.0]hexan-2-one]
AUC0-24 of metabolite relative to parent drug ([1]; Day 0): approximately 7 fold
AUC0-24 of metabolite relative to parent drug ([1]; Day 177): ≤ 14 fold
AUC(0-t) ([1]; female, females, Day 177): 88100 ng·h/mL
AUC(0-t) ([1]; male, males, Day 177): 80400 ng·h/mL
AUC0-24 of metabolite relative to parent drug, any individual animal [2]: ≤ 3.5 fold
amount formed with NADPH vs without NADPH ([3]; HLM, from EB-1010 10 μM): ~2 fold
share of lactam formed by enzymes other than CYPs or FMOs ([3]; human liver microsomes): about 50%
AUC0-24 of metabolite relative to parent drug [4]: 2-5 fold
AUC0-24 of metabolite relative to parent drug ([4]; 150 mg/kg/day): ≤ 10 fold

From patent US20160346249A1 (priority 2012, published 2016)
